{
  "source": "patent US20070048372A1",
  "about": "“Method for treating non-inflammatory osteoarthritic pain” (SRZ Properties, Inc., priority 2005, published 2007)",
  "key": {"[1]": {"system": "muscle pressure hyperalgesia induced by TNF", "assay": "TNF-induced muscle pressure hyperalgesia (Randall-Selitto, withdrawal threshold to muscle pressure)", "type": "in vivo, rat (Sprague Dawley)", "settings": "for reversal of muscular mechanical hyperalgesia (withdrawal threshold to muscle pressure): 18 h after TNF i.m., 30 to 60 minutes after drug; for full reversal of the muscle hyperalgesia: doses tested: pregabalin 30 and 100 mg/kg, gabapentin 100 mg/kg i.p.", "method": "(§1) Adult male Sprague Dawley rats with a body weight of 250 g to 300 g were used (supplier: Charles River, Sulzfeld, Germany). Animals were group-housed (3 animals per cage) and maintained in a room with controlled temperature (21-22° C.) and a reversed light-dark cycle (12 h/12 h) with food and water available ad libitum. All experiments were approved by the Bavarian State animal experimentation committee and carried out in accordance with its regulations.\n(§2) Recombinant rat tumor necrosis factor alpha (herein referred to as TNF) was obtained from R&D Systems, Minneapolis, Minn., U.S.A. TNF was diluted in 0.9% NaCl and used in a concentration of 1 μg in 50 μl. Injections were performed in short halothane narcosis with a 30 g needle bilaterally into the gastrocnemius or into the biceps brachii muscle. All rats were used to the behavioral tests before injections and baseline values were recorded over three test days.\nMechanical withdrawal thresholds to muscle pressure were measured with an analgesimeter (Ugo Basile, Comerio, Italy). The rat was allowed to crawl into a sock which helps the rat to relax. The hind limbs were positioned such that an increasing pressure could be applied onto the gastrocnemius muscle (maximum 250 g). The pressure needed to elicit withdrawal was recorded. Means of 3 trials for each hind limb were calculated (interstimulus interval of >30 sec). Only animals with a significant TNF effect were included for further analysis.\nRats were injected with TNF into the gastrocnemius muscle at 2 pm. Eighteen hours later, rats were tested for pressure hyperalgesia pre- and post-administration of the test drug. Rats were tested for pressure hyperalgesia 30 to 60 minutes after drug administration.\n(§3) The rats, initially 10 per group, were treated with either 3, 10 or 30 mg/kg lacosamide, 2 mg/kg metamizol, 30 or 100 mg/kg pregabalin, 100 mg/kg gabapentin, or the NaCl vehicle, i.p. (intraperitoneally). Volume of i.p. injections was 0.5 ml. A pilot study was performed to confirm that i.m. (intramuscular) injection of 1 μg TNF into the gastrocnemius muscle was sufficient to induce pressure hyperalgesia.\n(§4) Data are shown in graphs displaying means and standard errors of the means (SEM). Pre- and post-treatment data were compared using ANOVA (analysis of variance) and a Tukey post hoc test. Means of treatment groups were compared using a one-way ANOVA and Dunnett's post hoc test. Maximal possible effects (MPE) were calculated for all types of treatment."}, "[2]": {"system": "biceps muscle grip strength after TNF-induced muscle pain", "assay": "Biceps muscle grip strength after TNF-induced muscle pain", "type": "in vivo, rat (Sprague Dawley)", "settings": "for reversal of TNF-induced reduction of grip strength: 6 h after TNF i.m., 30 to 60 minutes after drug", "method": "as §1, §2\nGrip strength of the forelimbs was tested with a digital grip force meter (DFIS series, Chatillon, Greensboro, NC, U.S.A.). The rat was positioned to grab the grid with the forelimbs and was gently pulled so that the grip strength could be recorded. Means of three trials were calculated. The effect of the TNF treatment was calculated for each animal separately and only animals with a significant TNF effect were included for further analysis.\nRats were injected with TNF into the biceps brachii muscle at 8 am. Six hours later, grip strength of the forelimbs was tested with a digital grip force meter. Test drug was administered, and grip strength was again tested after 30 to 60 minutes.\nas §3, §4"}, "[3]": {"system": "rat formalin paw test (late phase)", "assay": "Rat formalin paw test (late phase): number of flinches and licking time", "type": "in vivo, rat (Rj: Wistar (Han))", "method": "Rats were given an intraplantar injection of 5% formalin (50 μl) into the posterior left paw. This treatment induces a recognizable flinching and licking response of the affected paw in control animals. The number of flinches was counted for 15 minutes, beginning 20 minutes after injection of formalin. The time spent licking the affected paw was also recorded.\nMale Rj: Wistar (Han) rats, 10 per group, weighing 100-130 g at the beginning of the experiments were studied per group. The test was performed blind.\nLacosamide (20 mg/kg), gabapentin (50 and 100 mg/kg), combinations of lacosamide (20 mg/kg) with gabapentin (50 and 100 mg/kg), and vehicle were administered i.p. 10 minutes before injection of formalin.\nLacosamide (10 and 20 mg/kg), morphine (2 and 4 mg/kg), combinations of lacosamide (10 and 20 mg/kg) with morphine (2 and 4 mg/kg), and vehicle were administered i.p. 10 minutes before injection of formalin.\nLacosamide (10 mg/kg), duloxetine (8 mg/kg), a combination of lacosamide (10 mg/kg) with duloxetine (8 mg/kg), and vehicle were administered i.p. 10 minutes before injection of formalin.\nLacosamide (10 and 20 mg/kg), memantine (4 and 8 mg/kg), combinations of lacosamide (10 and 20 mg/kg) with memantine (4 and 8 mg/kg), and vehicle were administered i.p. 10 minutes before injection of formalin.\nLacosamide (10 and 20 mg/kg), naproxen (8 and 16 mg/kg), combinations of lacosamide (10 and 20 mg/kg) with […] (8 and 16 mg/kg), and vehicle were administered i.p. 10 minutes before injection of formalin. Morphine (8 mg/kg) was included as a comparative treatment."}, "[4]": {"settings": "Example 3, 100 mg/kg i.p. alone"}},
  "note": "“Also recorded” adds a separate entry of the source.",
  "data": [
    {"smiles": "NCC1(CC(=O)O)CCCCC1", "note": "[Gabapentin]", "values": [
      {"measurement": "MPE (maximal possible effect) on muscle pressure hyperalgesia, compared with vehicle", "setting": "[1]; 100 mg/kg i.p.", "value": "significantly different from vehicle"},
      {"measurement": "reversal of muscular mechanical hyperalgesia (withdrawal threshold to muscle pressure)", "setting": "[1]; 100 mg/kg i.p.", "value": "significant reversal"},
      {"measurement": "full reversal of the muscle hyperalgesia", "setting": "[1]", "value": "Neither pregabalin nor gabapentin led to a full reversal"},
      {"measurement": "MPE (maximal possible effect) on biceps muscle grip strength, compared with vehicle", "setting": "[2]; 100 mg/kg i.p.", "value": "significantly different from vehicle"},
      {"measurement": "reversal of TNF-induced reduction of grip strength", "setting": "[2]; 100 mg/kg i.p.", "value": "significant reversal; also recorded: improved grip strength"},
      {"measurement": "Licking time % change (a) compared with vehicle control", "setting": "[3]; Example 3, 50 mg/kg i.p. alone", "value": "−28% (a)"},
      {"measurement": "Licking time (seconds) mean ± SEM", "setting": "[3]; Example 3, 50 mg/kg i.p. alone", "value": "161.0 ± 27.3 NS (a) seconds"},
      {"measurement": "No. of flinches % change (a) compared with vehicle control", "setting": "[3]; Example 3, 50 mg/kg i.p. alone", "value": "−24% (a)"},
      {"measurement": "No. of flinches mean ± SEM", "setting": "[3]; Example 3, 50 mg/kg i.p. alone", "value": "97.4 ± 23.8 NS (a)"},
      {"measurement": "decrease of the number of flinches as compared with vehicle controls", "setting": "[3]; Example 3, 50 mg/kg i.p. alone", "value": 24, "unit": "%"},
      {"measurement": "decrease of the time spent licking as compared with vehicle controls", "setting": "[3]; Example 3, 50 mg/kg i.p. alone", "value": 28, "unit": "%"},
      {"measurement": "Licking time % change (a) compared with vehicle control", "setting": "[3]; [4]", "value": "−60% (a)"},
      {"measurement": "Licking time (seconds) mean ± SEM", "setting": "[3]; [4]", "value": "90.0 ± 22.5 (a) seconds"},
      {"measurement": "No. of flinches % change (a) compared with vehicle control", "setting": "[3]; [4]", "value": "−31% (a)"},
      {"measurement": "No. of flinches mean ± SEM", "setting": "[3]; [4]", "value": "88.1 ± 19.4 NS (a)"},
      {"measurement": "decrease of the number of flinches as compared with vehicle controls", "setting": "[3]; [4]", "value": 31, "unit": "%"},
      {"measurement": "decrease of the time spent licking as compared with vehicle controls", "setting": "[3]; [4]", "value": 60, "unit": "%"}
    ]},
    {"smiles": "Cc1c(N(C)CS(=O)(=O)[O-])c(=O)n(-c2ccccc2)n1C.[Na+]", "note": "[metamizol]", "values": [
      {"measurement": "MPE (maximal possible effect) on muscle pressure hyperalgesia, compared with vehicle", "setting": "[1]; 2 mg/kg i.p.", "value": "significantly different from vehicle"},
      {"measurement": "reversal of muscular mechanical hyperalgesia (withdrawal threshold to muscle pressure)", "setting": "[1]; 2 mg/kg i.p.", "value": "complete reversal"},
      {"measurement": "MPE (maximal possible effect) on biceps muscle grip strength, compared with vehicle", "setting": "[2]; 2 mg/kg i.p.", "value": "significantly different from vehicle"},
      {"measurement": "reversal of TNF-induced reduction of grip strength", "setting": "[2]; 2 mg/kg i.p.", "value": "significant reversal"}
    ]},
    {"smiles": "CC12CC3CC(C)(C1)CC(N)(C3)C2", "note": "[Memantine]", "values": [
      {"measurement": "Licking time % change (a) compared with vehicle control", "setting": "[3]; Example 6, 4 mg/kg i.p. alone", "value": "+25% (a)"},
      {"measurement": "Licking time (seconds) mean ± SEM", "setting": "[3]; Example 6, 4 mg/kg i.p. alone", "value": "219.9 ± 21.8 NS (a) seconds"},
      {"measurement": "No. of flinches % change (a) compared with vehicle control", "setting": "[3]; Example 6, 4 mg/kg i.p. alone", "value": "−3% (a)"},
      {"measurement": "No. of flinches mean ± SEM", "setting": "[3]; Example 6, 4 mg/kg i.p. alone", "value": "161.4 ± 26.3 NS (a)"},
      {"measurement": "increase of the time spent licking as compared with vehicle controls", "setting": "[3]; Example 6, 4 mg/kg i.p. alone", "value": 25, "unit": "%"},
      {"measurement": "Licking time % change (a) compared with vehicle control", "setting": "[3]; Example 6, 8 mg/kg i.p. alone", "value": "+35% (a)"},
      {"measurement": "Licking time (seconds) mean ± SEM", "setting": "[3]; Example 6, 8 mg/kg i.p. alone", "value": "237.3 ± 18.9 (a) seconds"},
      {"measurement": "No. of flinches % change (a) compared with vehicle control", "setting": "[3]; Example 6, 8 mg/kg i.p. alone", "value": "−20% (a)"},
      {"measurement": "No. of flinches mean ± SEM", "setting": "[3]; Example 6, 8 mg/kg i.p. alone", "value": "132.3 ± 24.6 NS (a)"},
      {"measurement": "increase of the time spent licking as compared with vehicle controls", "setting": "[3]; Example 6, 8 mg/kg i.p. alone", "value": 35, "unit": "%"},
      {"measurement": "effect on the number of flinches as compared with vehicle controls", "setting": "[3]; Example 6, 4 and 8 mg/kg i.p. alone", "value": "did not clearly affect"}
    ]},
    {"smiles": "CC(C)C[C@H](CN)CC(=O)O", "note": "[pregabalin]", "values": [
      {"measurement": "MPE (maximal possible effect) on muscle pressure hyperalgesia, compared with vehicle", "setting": "[1]; 30 mg/kg i.p.", "value": "significantly different from vehicle"},
      {"measurement": "reversal of muscular mechanical hyperalgesia (withdrawal threshold to muscle pressure)", "setting": "[1]; 30 mg/kg i.p.", "value": "significant reversal"},
      {"measurement": "MPE (maximal possible effect) on muscle pressure hyperalgesia, compared with vehicle", "setting": "[1]; 100 mg/kg i.p.", "value": "significantly different from vehicle"},
      {"measurement": "reversal of muscular mechanical hyperalgesia (withdrawal threshold to muscle pressure)", "setting": "[1]; 100 mg/kg i.p.", "value": "significant reversal"},
      {"measurement": "full reversal of the muscle hyperalgesia", "setting": "[1]", "value": "Neither pregabalin nor gabapentin led to a full reversal"},
      {"measurement": "MPE (maximal possible effect) on biceps muscle grip strength, compared with vehicle", "setting": "[2]; 100 mg/kg i.p.", "value": "significantly different from vehicle"},
      {"measurement": "reversal of TNF-induced reduction of grip strength", "setting": "[2]; 100 mg/kg i.p.", "value": "significant reversal; also recorded: improved grip strength"}
    ]}
  ]
}
